# In US20040170622A1, “Methods and compositions for modulating XBP-1 activity” (President and Fellows of Harvard College, priority 2002, published 2004):
# Where a SMILES comes first, the peptide text is derived from it. The star is where a group is joined. Cbz = O=C(OCc1ccccc1)*
# B1: XBP-1s: vector encoding only the spliced form of murine XBP-1, a protein of 371 aa (protein)
# chain: MVVVAAAPSAATAAPKVLLLSGQPASGGRALPLMVPGPRAAGSEASGTPQARKRQRLTHLSPEEKALRRKLKNRVAAQTARDRKKARMSELEQQVVDLEEENHKLQLENQLLREKTHGLVVENQELRTRLGMDTLDPDEVPEVEAKGSGVRLVAGSAESAAGAGPVVTSPEHLPMDSDTVASSDSESDILLGILDKLDPVMFFKCPSPESASLEELPEVYPEGPSSLPASLSLSVGTSSAKLEAINELIRFDHVYTKPLVLEIPSETESQTNVVVKIEEAPLSSSEEDHPEFIVSVKKEPLEDDFIPELGISNLLSSSHCLRPPSCLLDAHSDCGYEGSPSPFSDMSSPLGTDHSWEDTFANELFPQLISV
# B2: dn-XBP: dominant negative XBP-1 containing the N-terminal 188 aa, lacking transactivation domain, retaining leucine zipper (protein)
# chain: MVVVAAAPSAATAAPKVLLLSGQPASGGRALPLMVPGPRAAGSEASGTPQARKRQRLTHLSPEEKALRRKLKNRVAAQTARDRKKARMSELEQQVVDLEEENHKLQLENQLLREKTHGLVVENQELRTRLGMDTLDPDEVPEVEAKGSGVRLVAGSAESAAGAGPVVTSPEHLPMDSDTVASSDSESD
# Assays:
# Format in all cases: cell-based
# [1] = system: BiP and CHOP; experiment: UPR target gene expression in NIH3T3 and J558 myeloma cells (Northern blot); settings: for induction of UPR target genes (BiP, CHOP), agent alone: MG-132 20 μM, Tm 10 μg/ml
# Procedure: (A) BiP and CHOP induction was examined by northern blot analysis after treating NIH3T3 or J558 myeloma cells with either MG-132 (20 μM), Tm (10 μg/ml) or both. Cells were pretreated with MG-132 for 1 hr and then further treated with Tm for 4 hrs. Ethidium bromide staining of the gel is shown at the bottom. (B) Inhibition of caspase-12 processing by proteasome inhibitors. Processing of full-length caspase-12 was examined by Western blotting in J558 myeloma cells treated with thapsigargin (1 μM) or PIs (20 μM) during the indicated time periods. (C) Alteration in the ratio of XBP-1 protein species in J558 cells were treated with increasing amounts of MG-132 for 16 hrs. Cells undergoing apoptosis were counted by Annexin V staining. (D) Time course of the XBP-1s to XBP-1u shift. Cells were treated with MG-132 (1 μM) for the indicated times and XBP-1u and spliced protein levels and cell death determined. (E) Alteration in the ratio of XBP-1 species in the MM.1s human myeloma line. Cells were treated with PS-341 (8 nM) in a time course analysis and XBP-1 protein species quantified.
# Total RNA was prepared by using Trizol reagent, electrophoresed on 1.2% agarose, 6% formaldehyde gels and then transferred onto Genescreen Plus membrane, (NEN, Boston, Mass.). […] Probes for ERdj4 and p58^IPK were generated from cDNA excised from EST clones (ATCC, Manassas, Va.) using appropriate restriction enzymes (ERdj4, IMAGE: 1920927; p58^IPK, IMAGE:2646147).
# The maturation and folding of ER membrane and secretory proteins relies on the activity of ER-resident chaperones and folding enzymes. ER proteins that ultimately fail to fold properly are degraded by the 26S proteasome, or ERAD. […] To test the effect of proteasome dysfunction on UPR activation, NIH3T3 fibroblasts (left panel) and J558 myeloma cells (right panel) were treated with the proteasome inhibitor (PI) MG-132 in the presence or absence of the ER stress inducer, tunicamycin (Tm), and the expression of UPR target genes assessed (FIG. 10a).
# [2] = system: spliced XBP-1; experiment: Inhibition of transactivation function of spliced XBP-1, luciferase in NIH 3T3 cells; settings: NIH 3T3, 200 ng spliced XBP-1, 200 ng mutant
# Procedure: Versions of XBP-1 with various deletions of the C terminal transcription activating domain (e.g., consisting of the N terminal 225, 188, or 136 amino acids of the spliced form of XBP-1) that expressed high levels of protein by western analysis were created. The proteins were tested for their ability to inhibit the transactivation function of spliced XBP-1. Both the 188 and 136 N terminal mutants were extremely potent inhibitors (effective at a 1:1 ratio) of the spliced XBP-1. NIH 3T3 cells expressing XBP-1uc constructs were transfected with 200 ng of spliced XBP-1, yielding a relative luciferase activity of 44.5. 200 ng of XBP-N188 lowered the luciferase level to 1.8 and 200 ng of XBP-N136 lowered the luciferase activity to 2.2.
# [3] = system: XBP-1; experiment: XBP-1 dependent gene expression in dn-XBP / iXBP transduced J558 cells (Northern, Western blot)
# Source text: (A) Synergistic effect of Tm and MG-132 on apoptosis. Annexin V positive cells were counted after treating J558 cells for 18 hrs with suboptimal concentrations of Tm and MG-132 as indicated. (B) J558-iXBP cells were generated by retroviral transduction of J558 cells with the U6 promoter based XBP-1 RNAi vector. (C) XBP-1 dependent gene expression in J558 cells that express control GFP, dn-XBP or iXBP-1 treated with Tm. Generation of dn-XBP-1 J558 cells by infection with a retrovirus containing dn-XBP cDNA inserted into the GFP-RV vector (N. N. lwakoshi et al., Nature Immunology 4, 321-329 (2003)). ERdj4, p58^IPK, BiP and CHOP gene expression were examined by Northern blot analysis. (D) Increased apoptosis in iXBP-1 and dn-XBP-1 expressing J558 cells. Cells were treated with the indicated amounts of Tm for 48 hrs and dead cells counted after Annexin V staining.
# Total RNA was prepared by using Trizol reagent, electrophoresed on 1.2% agarose, 6% formaldehyde gels and then transferred onto Genescreen Plus membrane, (NEN, Boston, Mass.). […] Probes for ERdj4 and p58^IPK were generated from cDNA excised from EST clones (ATCC, Manassas, Va.) using appropriate restriction enzymes (ERdj4, IMAGE: 1920927; p58^IPK, IMAGE:2646147). […]
molecule,measurement,setting,value
CC(C)C[C@@H](C=O)NC(=O)[C@H](CC(C)C)NC(=O)[C@H](CC(C)C)NC(=O)OCc1ccccc1 [MG-132] (Cbz-Leu-Leu-Leu-aldehyde),"induction of UPR target genes (BiP, CHOP), agent alone",[1],also induced the UPR
same,effect on Tm-induced stress response,"[1]; MG-132 pretreatment 1 hr, then Tm 4 hrs, NIH3T3 and J558",blocked rather than further augmented the Tm-induced stress response
tunicamycin [Tm],"induction of UPR target genes (BiP, CHOP), agent alone",[1],induction of expression of representative UPR target genes such as BiP (Grp78) and CHOP
B1,relative luciferase activity,[2],44.5
B2,induction of BiP and CHOP by Tm,[3],minimally affected
same,induction of ERdj4 and p58IPK by Tm,[3],"greatly reduced induction of XBP-1-dependent UPR target genes, ERdj4 and p58^IPK"
